The record followed here is patent US9586951B2 (FUJIFILM Corporation, priority 2013, dated 2017).

In test [1] the test system is human non-small cell lung cancer cell line NCI-H460. Briefly: Cell proliferation inhibition test by sensitivity-enhancing to ionizing radiation (Cell Titer Glo). It counts as cell-based. The settings on record: concentration in which SER became 2, NCI-H460 cells, ionizing radiation 2 Gy, cultured 120 hour. In short, it runs like this:
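Radiosensitisation measured as SER, a ratio of Cell Titer Glo luminescence in irradiated vs unirradiated plates relative to DMSO; SER2, the concentration yielding SER 2, came from sigmoidal regression. Compound (0.1% DMSO) was given 24 h post-seeding, 2 Gy applied 30 min later, then 120 hour culture at 37° C.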
(In ATP-based viability assays light output follows the ATP content of the culture.)

Another test has as its target T1, ATM (Homo sapiens, UniProt Q13315).
T1 construct: detecting phosphorylation of Chk2 in a human non-small cell lung cancer cell line NCI-H460 (ATCC company); host or cells: NCI-H460 human non-small cell lung cancer cells
The experiment in a line: ATM inhibition test (phosphorylation of Chk2 generated by ionizing radiation, AlphaScreen SureFire). The test is classed as cell-based. The note with it: phosphorylated Chk2 in NCI-H460 cells, ionizing radiation 8Gy, 1 hour after test compound treatment; read-out: ATM inhibitory activity. In outline: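 NCI-H460 cells, compound 1 h pre-treatment, 8Gy IR, further 1 h at 37° C in 5% CO2. Read-out: phospho-Chk2 via AlphaScreen SureFire. % inhibition relative to IR-induced signal window (irradiated vs non-irradiated drug-free wells).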

The structures appear in SMILES notation. Some results are limits rather than exact numbers.

T1 sequence (Q13315 whole entry): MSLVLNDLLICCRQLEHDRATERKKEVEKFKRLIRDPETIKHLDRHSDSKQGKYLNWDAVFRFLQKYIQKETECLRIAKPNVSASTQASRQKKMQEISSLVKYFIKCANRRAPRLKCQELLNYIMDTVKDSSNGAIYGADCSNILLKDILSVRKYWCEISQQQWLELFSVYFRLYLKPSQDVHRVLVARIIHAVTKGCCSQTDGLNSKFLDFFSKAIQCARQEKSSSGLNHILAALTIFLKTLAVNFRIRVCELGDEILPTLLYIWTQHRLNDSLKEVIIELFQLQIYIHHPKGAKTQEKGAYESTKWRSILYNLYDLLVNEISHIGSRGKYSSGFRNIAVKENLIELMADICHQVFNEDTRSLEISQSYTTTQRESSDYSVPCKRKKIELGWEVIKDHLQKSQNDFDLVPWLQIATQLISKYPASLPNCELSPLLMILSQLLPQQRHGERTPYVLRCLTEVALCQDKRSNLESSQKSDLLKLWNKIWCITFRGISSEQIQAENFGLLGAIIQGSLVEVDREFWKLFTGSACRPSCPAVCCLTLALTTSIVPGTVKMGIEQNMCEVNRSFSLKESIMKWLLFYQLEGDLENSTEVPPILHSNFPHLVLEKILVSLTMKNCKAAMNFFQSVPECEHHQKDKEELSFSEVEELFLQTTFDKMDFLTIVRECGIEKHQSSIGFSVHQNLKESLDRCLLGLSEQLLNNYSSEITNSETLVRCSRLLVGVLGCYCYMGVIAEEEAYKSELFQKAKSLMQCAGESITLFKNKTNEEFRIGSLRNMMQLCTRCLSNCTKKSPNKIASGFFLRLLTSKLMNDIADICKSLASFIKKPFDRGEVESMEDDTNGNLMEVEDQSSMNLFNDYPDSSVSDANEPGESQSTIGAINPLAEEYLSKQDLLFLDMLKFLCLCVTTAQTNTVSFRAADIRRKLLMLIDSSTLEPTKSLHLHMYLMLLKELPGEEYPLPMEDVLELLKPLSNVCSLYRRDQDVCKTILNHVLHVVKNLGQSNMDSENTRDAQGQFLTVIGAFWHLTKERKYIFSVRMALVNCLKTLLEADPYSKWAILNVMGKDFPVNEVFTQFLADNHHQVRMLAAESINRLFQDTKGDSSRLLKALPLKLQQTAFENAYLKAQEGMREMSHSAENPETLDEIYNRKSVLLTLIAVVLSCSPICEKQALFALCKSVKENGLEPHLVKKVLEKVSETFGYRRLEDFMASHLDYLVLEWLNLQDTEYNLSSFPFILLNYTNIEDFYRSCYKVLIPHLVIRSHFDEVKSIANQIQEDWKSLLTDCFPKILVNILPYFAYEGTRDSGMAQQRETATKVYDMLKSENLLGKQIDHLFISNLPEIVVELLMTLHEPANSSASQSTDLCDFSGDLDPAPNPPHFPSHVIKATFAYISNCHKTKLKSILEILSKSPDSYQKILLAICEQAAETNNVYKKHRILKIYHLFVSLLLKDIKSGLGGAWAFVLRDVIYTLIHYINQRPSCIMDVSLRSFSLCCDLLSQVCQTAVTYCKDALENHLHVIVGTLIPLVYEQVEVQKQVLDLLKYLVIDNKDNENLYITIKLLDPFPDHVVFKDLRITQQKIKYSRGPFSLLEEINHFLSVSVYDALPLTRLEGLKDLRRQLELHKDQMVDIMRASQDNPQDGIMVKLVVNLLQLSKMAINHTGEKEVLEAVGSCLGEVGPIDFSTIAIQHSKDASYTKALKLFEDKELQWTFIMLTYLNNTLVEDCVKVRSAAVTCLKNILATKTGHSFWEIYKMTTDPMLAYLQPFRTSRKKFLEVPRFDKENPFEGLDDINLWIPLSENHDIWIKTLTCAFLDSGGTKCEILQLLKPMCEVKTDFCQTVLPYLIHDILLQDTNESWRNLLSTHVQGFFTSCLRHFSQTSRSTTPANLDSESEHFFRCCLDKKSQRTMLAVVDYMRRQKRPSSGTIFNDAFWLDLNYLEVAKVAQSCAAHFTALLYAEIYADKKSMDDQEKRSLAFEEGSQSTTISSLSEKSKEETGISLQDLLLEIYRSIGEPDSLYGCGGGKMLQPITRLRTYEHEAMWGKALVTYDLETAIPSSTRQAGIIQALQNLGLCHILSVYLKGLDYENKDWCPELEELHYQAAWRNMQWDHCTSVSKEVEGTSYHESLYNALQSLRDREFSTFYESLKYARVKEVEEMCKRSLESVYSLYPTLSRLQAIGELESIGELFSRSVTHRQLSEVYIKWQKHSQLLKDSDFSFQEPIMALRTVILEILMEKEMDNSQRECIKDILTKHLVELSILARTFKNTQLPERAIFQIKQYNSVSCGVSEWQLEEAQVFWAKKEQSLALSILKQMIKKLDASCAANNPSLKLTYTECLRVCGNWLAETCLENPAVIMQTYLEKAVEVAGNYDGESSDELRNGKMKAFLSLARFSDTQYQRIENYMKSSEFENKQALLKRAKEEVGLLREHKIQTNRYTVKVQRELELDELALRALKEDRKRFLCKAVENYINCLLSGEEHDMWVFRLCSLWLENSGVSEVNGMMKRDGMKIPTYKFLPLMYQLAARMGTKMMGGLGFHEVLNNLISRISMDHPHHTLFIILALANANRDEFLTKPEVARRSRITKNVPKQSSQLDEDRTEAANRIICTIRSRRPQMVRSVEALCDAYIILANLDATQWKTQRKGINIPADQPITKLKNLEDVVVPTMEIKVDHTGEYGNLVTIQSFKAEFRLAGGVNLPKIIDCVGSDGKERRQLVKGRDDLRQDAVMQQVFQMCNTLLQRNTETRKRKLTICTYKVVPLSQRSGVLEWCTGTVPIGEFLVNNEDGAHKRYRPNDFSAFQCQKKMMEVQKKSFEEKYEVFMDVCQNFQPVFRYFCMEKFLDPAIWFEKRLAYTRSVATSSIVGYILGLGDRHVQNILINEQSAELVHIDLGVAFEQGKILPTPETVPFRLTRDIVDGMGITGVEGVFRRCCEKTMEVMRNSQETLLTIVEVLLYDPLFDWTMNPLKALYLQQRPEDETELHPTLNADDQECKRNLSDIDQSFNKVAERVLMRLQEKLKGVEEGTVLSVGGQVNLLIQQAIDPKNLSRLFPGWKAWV

`O=c1cc(N2CCOCC2)cc(-c2cccc3c2Oc2ccc(NCc4cncc(Cl)c4)cc2C3)[nH]1` [Example 2-2-12, 6-(7-(((5-Chloropyridin-3-yl)methyl)amino)-9H-xanthen-4-yl)-4-morpholino pyridin-2 (1H)-one]: the SER2 (concentration at which the radiation sensitivity-enhancement ratio reaches 2) in test [1] (Homo sapiens, NCI-H460, 120 h) lay within 100 to 500 nM. Further, the IC50 on ATM is less than 100 nM.
With `COc1ncc(CNc2ccc3c(c2)Cc2cccc(-c4cc(N5CCOCC5)cc(=O)[nH]4)c2O3)cn1` [Example 2-2-14, 6-(7-(((2-Methoxypyrimidin-5-yl)methyl)amino)-9H-xanthen-4-yl)-4-morpholino pyridin-2(1H)-one], in test [1] (Homo sapiens, NCI-H460, 120 h), the SER2 (concentration at which the radiation sensitivity-enhancement ratio reaches 2) lay in the range of 100 to 500 nM. In addition, at ATM, the IC50 was less than 100 nM.
In the case of `O=c1cc(N2CCOCC2)cc(-c2cccc3c2Oc2ccc(NCc4ccnc(Cl)c4)cc2C3)[nH]1` [Example 2-2-52, 6-(7-(((2-Chloropyridin-4-yl)methyl)amino)-9H-xanthen-4-yl)-4-morpholino pyridin-2 (1H)-one], the SER2 (concentration at which the radiation sensitivity-enhancement ratio reaches 2) in test [1] (Homo sapiens, NCI-H460, 120 h) lay within 500 to 2000 nM. Moreover, the IC50 on ATM is less than 100 nM.
Regarding `Cc1cccc(CNc2ccc3c(c2)Cc2ccnc(-c4cc(N5CCOCC5)cc(=O)[nH]4)c2O3)n1` [Example 2-41-2, 6-(7-(((6-Methylpyridin-2-yl)methyl)amino)-5H-chromeno[2,3-c]pyridin-1-yl)-4-morpholino pyridin-2 (1H)-one], in test [1] (Homo sapiens, NCI-H460, 120 h), the SER2 (concentration at which the radiation sensitivity-enhancement ratio reaches 2) was 100 to 500 nM. Besides, the IC50 at ATM was less than 100 nM.
Take `Cc1cncc(C(C)Nc2ccc3c(c2)Sc2cccc(-c4cc(N5CCOCC5)cc(=O)[nH]4)c2O3)c1` (stereo not shown) [Example 4-4-29, 6-(8-((1-(5-Methylpyridin-3-yl)ethyl)amino)phenoxathiin-4-yl)-4-morpholino pyridin-2(1H)-one]: in test [1] (Homo sapiens, NCI-H460, 120 h), the SER2 (concentration at which the radiation sensitivity-enhancement ratio reaches 2) lay in the range of 100 to 500 nM. Besides, the IC50 at ATM is less than 100 nM.
As for `O=c1cc(N2CCOCC2)cc(-c2cccc3c2Oc2ccc(NCc4cc(-c5cccnc5)ccn4)cc2C3)[nH]1` [Example 2-2-72], the IC50 is 100 to 500 nM in test [1] (Homo sapiens, NCI-H460, 120 h, read-out: SER2) and less than 100 nM at ATM.
As to `COC[C@H](CN1CCOC[C@@H]1C)Nc1ccc2c(c1)Sc1cccc(-c3cc(N4CCOCC4)cc(=O)[nH]3)c1S2` [Example 1-46-5, 6-(7-(((S)-1-Methoxy-3-((S)-3-methylmorpholino)propan-2-yl)amino)thianthren-1-yl)-4-morpholino pyridin-2(1H)-one], the SER2 (concentration at which the radiation sensitivity-enhancement ratio reaches 2) in test [1] (Homo sapiens, NCI-H460, 120 h) was 100 to 500 nM. Also, the IC50 on ATM is less than 100 nM.
On the same counts, the results for `Cc1ccnc(C(CO)Nc2ccc3c(c2)Sc2cccc(-c4cc(N5CCOCC5)cc(=O)[nH]4)c2S3)n1` (stereo not shown) [Example 1-12-90, 6-(7-((2-Hydroxy-1-(4-methylpyrimidin-2-yl)ethyl)amino)thianthren-1-yl)-4-morpholino pyridin-2(1H)-one] are 100 to 500 nM and less than 100 nM.
Consider `CNc1ncc(CNc2ccc3c(c2)Cc2cccc(-c4cc(N5CCOCC5)cc(=O)[nH]4)c2O3)cn1` [Example 2-2-16, 6-(7-(((2-(Methylamino)pyrimidin-5-yl)methyl)amino)-9H-xanthen-4-yl)-4-morpholino pyridin-2(1H)-one], for which, in test [1] (Homo sapiens, NCI-H460, 120 h), the SER2 (concentration at which the radiation sensitivity-enhancement ratio reaches 2) was 100 to 500 nM. In addition, the IC50 on ATM fell in the range of 100 to 500 nM.
Turning to `Cc1ccnc(C(C)Nc2ccc3c(c2)Cc2cccc(-c4cc(N5CCOCC5)cc(=O)[nH]4)c2O3)c1` (stereo not shown) [Example 2-14-19, 6-(7-((1-(4-Methylpyridin-2-yl)ethyl)amino)-9H-xanthen-4-yl)-4-morpholino pyridin-2(1H)-one], the SER2 (concentration at which the radiation sensitivity-enhancement ratio reaches 2) in test [1] (Homo sapiens, NCI-H460, 120 h) lay within 100 to 500 nM. Moreover, the IC50 on ATM lay within 100 to 500 nM.
In the case of `Cc1cccc(C(CCN(C)C)Nc2ccc3c(c2)Sc2cccc(-c4cc(N5CCOCC5)cc(=O)[nH]4)c2S3)n1` (single isomer, unassigned) [Example 1-22-11-1, 6-(7-((3-(dimethylamino)-1-(6-methylpyridin-2-yl)propyl)amino)thianthren-1-yl)-4-morpholinopyridin-2(1H)-one], in test [1] (Homo sapiens, NCI-H460, 120 h), the SER2 (concentration at which the radiation sensitivity-enhancement ratio reaches 2) fell in the range of 100 to 500 nM. At ATM, the IC50 was less than 100 nM.
Regarding `Cn1cc(-c2ccnc(CNc3ccc4c(c3)Cc3cccc(-c5cc(N6CCOCC6)cc(=O)[nH]5)c3O4)c2)cn1` [Example 2-2-74, 6-(7-(((4-(1-Methyl-1H-pyrazol-4-yl)pyridin-2-yl)methyl)amino)-9H-xanthen-4-yl)-4-morpholino pyridin-2(1H)-one], in test [1] (Homo sapiens, NCI-H460, 120 h), the SER2 (concentration at which the radiation sensitivity-enhancement ratio reaches 2) is 100 to 500 nM. For the same compound, the IC50 on ATM is less than 100 nM.
`COc1cc(CNc2ccc3c(c2)Sc2cccc(-c4cc(N5CCOCC5)cc(=O)[nH]4)c2S3)ccn1` [Example 1-44-4, 6-(7-(((2-Methoxypyridin-4-yl)methyl)amino)thianthren-1-yl)-4-morpholino pyridin-2 (1H)-one]: the SER2 (concentration at which the radiation sensitivity-enhancement ratio reaches 2) in test [1] (Homo sapiens, NCI-H460, 120 h) fell in the range of 500 to 2000 nM. Further, at ATM, the IC50 was less than 100 nM.
With `O=c1cc(N2CCOCC2)cc(-c2cccc3c2Sc2ccc(NC4CCCN(Cc5cccnc5)C4)cc2S3)[nH]1` (stereo not shown) [Example 1-24-2, 4-Morpholine-6-(7-((1-(pyridin-3-ylmethyl)piperidin-3-yl)amino)thianthren-1-yl)pyridin-2 (1H)-one], the SER2 (concentration at which the radiation sensitivity-enhancement ratio reaches 2) in test [1] (Homo sapiens, NCI-H460, 120 h) was 100 to 500 nM. In addition, the IC50 at ATM was less than 100 nM.
With `COc1ccnc(C(C)Nc2ccc3c(c2)Cc2cccc(-c4cc(N5CCOCC5)cc(=O)[nH]4)c2O3)c1` (single isomer, unassigned) [Example 2-14-86-2, 6-(7-((1-(4-methoxypyridin-2-yl)ethyl)amino)-9H-xanthen-4-yl)-4-morpholinopyridin-2(1H)-one], the SER2 (concentration at which the radiation sensitivity-enhancement ratio reaches 2) in test [1] (Homo sapiens, NCI-H460, 120 h) lay within 100 to 500 nM. Also, on ATM, the IC50 is less than 100 nM.
For `Cc1ccc(C(Nc2ccc3c(c2)Sc2cccc(-c4cc(N5CCOCC5)cc(=O)[nH]4)c2S3)C2CCN(C)CC2)nc1` (single isomer, unassigned) [Example 1-51-2], the SER2 (concentration at which the radiation sensitivity-enhancement ratio reaches 2) in test [1] fell in the range of 100 to 500 nM. Moreover, the IC50 at ATM was less than 100 nM.
Turning to `CCN(C)CCC(Nc1ccc2c(c1)Sc1cccc(-c3cc(N4CCOCC4)cc(=O)[nH]3)c1S2)c1cccc(C)n1` (stereo not shown) [Example 1-23-1, 6-(7-((3-(ethyl(methyl)amino)-1-(6-methylpyridin-2-yl)propyl)amino)thianthren-1-yl)-4-morpholinopyridin-2(1H)-one], the SER2 (concentration at which the radiation sensitivity-enhancement ratio reaches 2) in test [1] (Homo sapiens, NCI-H460, 120 h) was in the range of 100 to 500 nM. Moreover, the IC50 on ATM is less than 100 nM.
In the case of `Cc1cnc(C(CF)Nc2ccc3c(c2)Sc2cccc(-c4cc(N5CCOCC5)cc(=O)[nH]4)c2S3)nc1` (stereo not shown) [Example 1-12-93, 6-(7-((2-Fluoro-1-(5-methylpyrimidin-2-yl)ethyl)amino)thianthren-1-yl)-4-morpholino pyridin-2(1H)-one], the SER2 (concentration at which the radiation sensitivity-enhancement ratio reaches 2) in test [1] (Homo sapiens, NCI-H460, 120 h) was in the range of 100 to 500 nM. In addition, at ATM, the IC50 was less than 100 nM.
As for `COc1cncc(C(C)Nc2ccc3c(c2)Sc2cccc(-c4cc(N5CCOCC5)cc(=O)[nH]4)c2S3)c1` (stereo not shown) [Example 1-12-9, 6-(7-((1-(5-Methoxypyridin-3-yl)ethyl)amino)thianthren-1-yl)-4-morpholino pyridin-2(1H)-one], the SER2 (concentration at which the radiation sensitivity-enhancement ratio reaches 2) in test [1] (Homo sapiens, NCI-H460, 120 h) was in the range of 100 to 500 nM. For the same compound, the IC50 at ATM is less than 100 nM.
For the compound `O=c1cc(N2CCOCC2)cc(-c2cccc3c2Oc2ccc(NCc4ccc(Cl)nc4)cc2C3)[nH]1` [Example 2-2-3], in test [1] (Homo sapiens, NCI-H460, 120 h), the SER2 (concentration at which the radiation sensitivity-enhancement ratio reaches 2) lay within 100 to 500 nM. In addition, on ATM, the IC50 was 100 to 500 nM.
